14 compounds from ChEMBL document CHEMBL1201862, “PubChem BioAssay data set” (2004) can be followed below.

Some test systems named below: OVCAR-8; SF-268; U-251; SF-539; UACC-62; SK-MEL-2; HOP-18; DMS-114; HCT-116; HT-29; HCT-15; TK-10; KM12; A549; M14; EKVX.
Assay in all cases: DTP human tumour cell line panel, 48 h

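Protocol summary: plate cells (96-well), add compound at 5 concentrations, incubate 48 h, interpolate endpoints linearly. The concentration for 50% growth inhibition is given as GI50.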 Active and inactive are the calls of the source. Rule as the data show it: active = GI50 up to about 1.1 µM and inactive = higher.

The term GI50 denotes the concentration at which growth is held to half of that of the control. Take `Cc1cccc(C(C)(C)C)c1NC(=O)C(=O)C(c1cnc2ccccc2n1)[N+](=O)[O-]` (centres undefined): the GI50 with OVCAR-8, in the assay on SF-268, in the assay on U-251, in the assay on SF-539, with UACC-62 and in the assay with SK-MEL-2 was > 100 µM (inactive) throughout. Also, the GI50 in the assay on HOP-18 was > 100 µM (inactive); with DMS-114, > 100 µM (inactive); with HCT-116 it was > 100 µM (inactive); in the assay with HT-29 it was > 100 µM (inactive); in the assay with HCT-15 it was greater than 100 µM; in the assay with TK-10, > 100 µM (inactive). Further, the GI50 with KM12, with A549, in the assay on M14 and with EKVX was > 100 µM (inactive) each time.
Take `CC1=N/C(=C\c2ccc(N)cc2)C(=O)N1Nc1nnc(NN2C(=O)/C(=C/c3ccc(N)cc3)N=C2C)c2ccccc12`: the GI50 was > 100 µM (inactive) with OVCAR-8; 55 µM (inactive) in the assay with SF-268; 45.4 µM (inactive) in the assay with U-251; 24.8 µM (inactive) with SF-539; 54.5 µM (inactive) in the assay on UACC-62; 27.1 µM (inactive) in the assay on HOP-18. In addition, the GI50 in the assay on HCT-116 is > 100 µM (inactive); with HT-29, > 100 µM (inactive); with HCT-15, 82.2 µM; with KM12, 37.6 µM (inactive); in the assay on A549, > 100 µM (inactive); in the assay with M14, > 100 µM (inactive). In addition, the GI50 in the assay with EKVX is > 100 µM (inactive).
`OC(c1cc2ccccc2[nH]1)C(O)(c1cc2ccccc2[nH]1)c1cc2ccccc2[nH]1` (centres undefined): the GI50 in the assay on OVCAR-8 was 15.9 µM (inactive); in the assay on SF-268, 15.6 µM (inactive); with U-251, 25.8 µM (inactive); in the assay with SF-539, 41.4 µM (inactive); with UACC-62 it was 5.97 µM (inactive); in the assay with SK-MEL-2, 17.9 µM (inactive). In addition, the GI50 in the assay on DMS-114 was 7.31 µM (inactive); with HCT-116 it was 6.92 µM (inactive); in the assay with HT-29, 9.18 µM (inactive); with HCT-15, 10 µM; in the assay with TK-10 it was 40.1 µM (inactive); with KM12 it was 8 µM (inactive). In addition, the results for the GI50 with A549 and in the assay with EKVX were 12.6 µM (inactive) and 12.3 µM (inactive), respectively.
Regarding `C=C1C(=O)O[C@@H]2[C@H]1CCC(C)=C1C=CC(=O)[C@]12C`, the GI50 in the assay on OVCAR-8 is 17.3 µM (inactive); in the assay on SF-268 it was 23.9 µM (inactive); in the assay with U-251, 22.4 µM (inactive); in the assay with SF-539, 15.5 µM (inactive); in the assay with UACC-62, 10.3 µM (inactive); in the assay with SK-MEL-2, 20.7 µM (inactive). The GI50 was 15.9 µM (inactive) with HOP-18; 14.3 µM (inactive) in the assay with DMS-114; 12.2 µM (inactive) with HCT-116; 10.9 µM (inactive) in the assay on HT-29; 23 µM (inactive) in the assay with TK-10; 12.4 µM (inactive) in the assay with KM12. For the same compound, the GI50 in the assay with A549 was 23.6 µM (inactive); in the assay on EKVX, 17 µM (inactive).
Turning to `O=C(CCn1[nH]c(=O)c(Cl)c(Cl)c1=O)NOCCCc1ccccc1`, the GI50 in the assay with OVCAR-8, in the assay on SF-268, in the assay on SF-539, in the assay on UACC-62, in the assay with SK-MEL-2 and with HOP-18 was > 100 µM (inactive) each time. Also, the GI50 with HCT-116 is > 100 µM (inactive); in the assay on HT-29, > 100 µM (inactive); in the assay on HCT-15 it was greater than 100 µM; in the assay with TK-10, > 100 µM (inactive); in the assay with KM12, > 100 µM (inactive); with A549, > 100 µM (inactive). For the same compound, the GI50 in the assay on M14 and in the assay with EKVX was > 100 µM (inactive) throughout.
Consider `C/C(CCn1[nH]c(=O)ccc1=O)=N\Nc1ccc([N+](=O)[O-])cc1[N+](=O)[O-]`, for which the GI50 with OVCAR-8 is 93.1 µM (inactive); with SF-268, > 100 µM (inactive); in the assay with SF-539, 95.5 µM (inactive); in the assay on UACC-62, 5.9 µM (inactive); with SK-MEL-2 it was > 100 µM (inactive); with HOP-18, > 100 µM (inactive). Moreover, the GI50 is 81.8 µM (inactive) in the assay with DMS-114; > 100 µM (inactive) in the assay with HCT-116; > 100 µM (inactive) in the assay with HT-29; 23.6 µM in the assay with HCT-15; > 100 µM (inactive) in the assay with TK-10; 33.5 µM (inactive) with KM12. The GI50 was > 100 µM (inactive) with A549, 26 µM (inactive) with M14 and > 100 µM (inactive) with EKVX.
In the case of `CCC(=O)N1C(=S)SC[C@H]1C(=O)OC`, the GI50 with OVCAR-8, with SF-268, in the assay with U-251, in the assay on SF-539, in the assay on UACC-62 and in the assay on HOP-18 was > 100 µM (inactive) each time. The GI50 in the assay with DMS-114, with HCT-116, in the assay with HT-29, in the assay on TK-10, in the assay on KM12 and in the assay with A549 was > 100 µM (inactive) throughout. Also, the GI50 in the assay with M14 and in the assay on EKVX was > 100 µM (inactive) throughout.
For the compound `COc1ccc2cc1Oc1ccc(cc1)CC1c3cc(c(OC)cc3CCN1C)Oc1c3c(cc4c1C(C2)N(C)CC4)OCO3` (centres undefined), the GI50 in the assay with OVCAR-8 is 8.36 µM (inactive); in the assay on SF-268, 8.36 µM (inactive); in the assay on U-251 it was 5.14 µM (inactive); in the assay on SF-539, 2.34 µM (inactive); in the assay with UACC-62, 16.2 µM (inactive); with SK-MEL-2 it was 5.2 µM (inactive). Moreover, the GI50 in the assay on DMS-114 is 5.74 µM (inactive); with HCT-116, 12.8 µM (inactive); in the assay with HT-29 it was 2.46 µM (inactive); with HCT-15, 4.42 µM; in the assay with TK-10, 2.19 µM (inactive); in the assay on KM12, 12.9 µM (inactive). Besides, the figures for the GI50 in the assay with A549, with M14 and in the assay on EKVX were 16 µM (inactive), 1.87 µM (inactive) and 14.9 µM (inactive), respectively.
As for `COc1cc2cc(OC(C)=O)c3cc4c(cc3c2c(OC)c1OC)OCO4`, the GI50 in the assay with OVCAR-8, with SF-268, in the assay on U-251, in the assay with SF-539, in the assay on SK-MEL-2 and in the assay on HOP-18 was > 100 µM (inactive) each time. In addition, the GI50 with DMS-114 was > 100 µM (inactive); in the assay with HCT-116, > 100 µM (inactive); in the assay on HT-29, > 100 µM (inactive); in the assay on HCT-15, greater than 100 µM; with TK-10 it was > 100 µM (inactive); in the assay with KM12 it was > 100 µM (inactive). Also, the GI50 with A549, in the assay with M14 and with EKVX was > 100 µM (inactive) each time.
Regarding `CCC1(c2ccncc2)CCC(=O)NC1=O` (centres undefined) [ROGLETIMIDE], the GI50 in the assay on OVCAR-8, in the assay with SF-268, in the assay on U-251, in the assay with SF-539, in the assay on UACC-62 and in the assay with SK-MEL-2 was > 100 µM (inactive) in each case. Moreover, the GI50 with DMS-114 was > 100 µM (inactive); in the assay with HCT-116 it was > 100 µM (inactive); in the assay with HT-29 it was > 100 µM (inactive); with HCT-15 it was greater than 100 µM; in the assay on TK-10, > 100 µM (inactive); in the assay with KM12, > 100 µM (inactive). For the same compound, the GI50 in the assay on A549, in the assay on M14 and with EKVX was > 100 µM (inactive) throughout.
For `Cc1ccccc1NC(=O)C1C(=O)N(c2ccccc2C)C(=O)/C1=N\N` (centres undefined), the GI50 in the assay on OVCAR-8, with SF-268, in the assay on U-251, with SF-539, with UACC-62 and in the assay with SK-MEL-2 was > 100 µM (inactive) each time. Also, the GI50 in the assay on HOP-18 is > 100 µM (inactive); in the assay with DMS-114, > 100 µM (inactive); in the assay on HCT-116 it was > 100 µM (inactive); with HT-29, > 100 µM (inactive); in the assay with HCT-15, greater than 100 µM; with KM12 it was > 100 µM (inactive). Further, the GI50 in the assay on A549, in the assay on M14 and in the assay on EKVX was > 100 µM (inactive) throughout.
Consider `O=C1c2cccc3c(Cl)ccc(c23)C(=O)N1CCCN1CCN(CCCN2C(=O)c3cccc4c(Cl)ccc(c34)C2=O)CC1`, for which the GI50 was 50.9 µM (inactive) with OVCAR-8; 55.7 µM (inactive) with U-251; > 100 µM (inactive) in the assay with SF-539; > 100 µM (inactive) in the assay with UACC-62; > 100 µM (inactive) in the assay with SK-MEL-2; > 100 µM (inactive) in the assay with HOP-18. For the same compound, the GI50 in the assay on DMS-114 was > 100 µM (inactive); in the assay with HCT-116 it was 66.7 µM (inactive); with HT-29 it was > 100 µM (inactive); in the assay with HCT-15, greater than 100 µM; in the assay with TK-10 it was > 100 µM (inactive); in the assay with KM12, > 100 µM (inactive). Moreover, the GI50 in the assay on A549, with M14 and with EKVX was > 100 µM (inactive) in each case.
Regarding `CC1C2CC=CC(=O)[C@@]2(C)CCC12OCCO2` (some centres undefined), the GI50 with OVCAR-8, with SF-268, in the assay with U-251, in the assay on SF-539, with UACC-62 and in the assay with SK-MEL-2 was > 100 µM (inactive) each time. Moreover, the GI50 in the assay on DMS-114, with HCT-116, in the assay with HT-29, with TK-10, in the assay with KM12 and in the assay on A549 was > 100 µM (inactive) throughout. Moreover, the GI50 was 97.1 µM (inactive) in the assay on M14 and > 100 µM (inactive) in the assay on EKVX.
`O=C1C=CC(CC(=O)c2ccc3ccccc3c2)O1` (centres undefined): the GI50 was 18.4 µM (inactive) in the assay on OVCAR-8; 17.6 µM (inactive) with SF-268; 18.2 µM (inactive) with U-251; 18.9 µM (inactive) with SF-539; 18.8 µM (inactive) with UACC-62; 23.8 µM (inactive) in the assay on SK-MEL-2. For the same compound, the GI50 was 35 µM (inactive) in the assay on HOP-18; 17.9 µM (inactive) in the assay on HCT-116; 19.1 µM (inactive) in the assay on HT-29; 20.5 µM in the assay on HCT-15; 32.8 µM (inactive) in the assay on TK-10; 17.5 µM (inactive) in the assay with KM12. Moreover, the GI50 in the assay with A549 was 61.9 µM (inactive); in the assay on M14 it was 32.2 µM (inactive); in the assay on EKVX it was > 100 µM (inactive).
